Data taken from patent publication US12583825B2, “Benzo[h]quinazolin-4-amine and thieno[3,2-h]quinazolin-4-amine derivatives for the treatment of cancer” (Redona Therapeutics, Inc., priority 2020, dated 2026).

Key:
[1] = target: T1, recombinant human CLK3 (Homo sapiens, UniProt P49761); assay: CLK3 kinase assay (LANCE Ultra); type: biochemical; conditions: 0.5 nM CLK3, 300 μM ATP, 3 hours at 30° C.
T1 construct: purchased Thermo Fisher Scientific PV3826
Method: CLK3 kinase activity was measured using the LANCE® Ultra technology (PerkinElmer) essentially as recommended by the supplier. Briefly, 2.5 μL of test sample at 4× the desired final concentration in 4% DMSO were dispensed into white, low volume, round bottom, 384 well plates (Corning, cat. no. 4512). 5 μL of a mixture containing recombinant human CLK3 (Thermo Fisher Scientific, cat. no. PV3826) and the labeled peptide substrate ULight™-CREBtide (PerkinElmer, cat. no. TRF0107) prepared in 1.33× kinase buffer (Thermo Fisher Scientific, cat. no. PV3189) were then added. Finally, the reactions were started by adding 2.5 μL of a 4× solution of ATP in kinase buffer. The plates were sealed with adhesive foils and incubated for 3 hours at 30° C. in the dark. The final concentrations of CLK3, ULight™—CREBtide, and ATP were 0.5 nM, 50 nM, and 300 μM, respectively. 5 μL of 40 mM EDTA were then added to terminate the reactions. The Eu-anti-phospho-CREB antibody (PerkinElmer, cat. no. TRF0200) diluted in LANCE® detection buffer (PerkinElmer, cat. no. CR97) was then added to a final concentration of 2 nM and the reactions were incubated for 1 hour at room temperature in the dark. The signals were measured using a Synergy 4 reader (BioTek) with a 320/80 nm filter for the excitation and 620/10 nm and 665/8 nm filters for the donor and acceptor emission, respectively. […] IC50 values were calculated by fitting the concentration-response data to a sigmoidal 4-parameter logistic model.

[2] = system: MDA-MB-231 cells; assay: MDA-MB-231 proliferation assay; type: cell-based; conditions: Homo sapiens, 72 hours, YO-PRO-1 readout
Method: MDA-MB-231 Proliferation Assay
MDA-MB-231 cells were cultivated in DMEM High Glucose (4.5 g/L) with L-Glutamine (BioConcept, cat. no. 1-26F03-I) supplemented with 1% Na-pyruvate (Sigma, cat. no. S8636), 1% Penicillin-Streptomycin (BioConcept, cat. no. 4-01F00H), and 10% FBS (Sigma, cat. no. F9665) using standard techniques. Cells were seeded in black, clear-bottom 384 well plates for tissue culture (Greiner Bio-One, cat. no. 781091) at a density of 750 cells per well in 20 μL medium and the plates were incubated overnight at 37° C. with 5% CO2 prior to treatment. Experimental compounds were serially diluted in DMSO to 200× the desired final concentrations. The solutions were then diluted 1:40 with culture medium and 5 μL aliquots were mixed into the wells containing the cells. The final concentration of DMSO was 0.5%. The plates were incubated for 72 hours and cell numbers were then measured using YO-PRO™-1 Iodide (ThermoFisher Scientific, cat. no. Y3603) essentially as recommended by the manufacturer. […] The plates were incubated at room temperature in the dark for 30 minutes. Fluorescence intensity signals were then measured on a Synergy 4 reader (BioTek) using 485/20 nm and 530/25 nm filters for the excitation and emission, respectively. Relative proliferation values were calculated by normalizing the raw data using DMSO-treated cells (100% proliferation) and the signals obtained from cells that were evaluated at the time of compound addition (0% proliferation). The concentration-response data were fitted to a sigmoidal 4-parameter logistic model with the maximum constrained to 100%.

T1 sequence (P49761 whole entry): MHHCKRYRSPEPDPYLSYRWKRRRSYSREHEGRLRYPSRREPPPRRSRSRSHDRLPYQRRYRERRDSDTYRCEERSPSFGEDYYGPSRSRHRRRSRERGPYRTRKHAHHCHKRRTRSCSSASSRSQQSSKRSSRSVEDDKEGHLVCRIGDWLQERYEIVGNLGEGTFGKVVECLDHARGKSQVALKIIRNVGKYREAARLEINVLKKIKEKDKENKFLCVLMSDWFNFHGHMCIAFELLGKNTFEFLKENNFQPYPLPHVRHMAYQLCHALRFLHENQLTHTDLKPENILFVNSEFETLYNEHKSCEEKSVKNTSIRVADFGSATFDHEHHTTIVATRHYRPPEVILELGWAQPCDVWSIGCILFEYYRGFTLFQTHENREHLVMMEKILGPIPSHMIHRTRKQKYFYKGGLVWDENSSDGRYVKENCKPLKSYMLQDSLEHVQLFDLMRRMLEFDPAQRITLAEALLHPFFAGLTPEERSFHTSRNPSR

SMILES | IC50 [1] [nM] | GI50 [2] [nM]
CC1(C)/C(=N/OCCN2CCCCC2)c2cc(O[C@H]3CC[C@H](N)CC3)ccc2-c2ncnc(N)c21 [Example 16, (6Z)-8-(trans-4-aminocyclohexoxy)-5,5-dimethyl-6-[2-(1-piperidyl)ethoxyimino]benzo[h]quinazolin-4-amine] | 265 | > 2000
CC1(C)/C(=N/OCc2ccc(C#N)cc2)c2cc(O[C@H]3CC[C@H](N)CC3)ccc2-c2ncnc(N)c21 [Example 20, 4-[[(Z)-[4-amino-8-(trans-4-aminocyclohexoxy)-5,5-dimethyl-benzo[h]quinazolin-6-ylidene]amino]oxymethyl]benzonitrile] | 237 | > 2000
CC1(C)/C(=N/OCC#N)c2cc(O[C@H]3CC[C@H](N)CC3)ccc2-c2ncnc(N)c21 [Example 22, [(Z)-[4-amino-8-(trans-4-aminocyclohexoxy)-5,5-dimethyl-benzo[h]quinazolin-6-ylidene]amino]oxyacetonitrile] | 34.5 | 691
CCOC(=O)CCO/N=C1\c2cc(O[C@H]3CC[C@H](N)CC3)ccc2-c2ncnc(N)c2C1(C)C [Example 23, ethyl 3-[(Z)-[4-amino-8-(trans-4-aminocyclohexoxy)-5,5-dimethyl-benzo[h]quinazolin-6-ylidene]amino]oxypropanoate] | 26.5 | 647
Cc1noc(C)c1CO/N=C1\c2cc(O[C@H]3CC[C@H](N)CC3)ccc2-c2ncnc(N)c2C1(C)C [Example 25, (6Z)-8-(trans-4-aminocyclohexoxy)-6-[(3,5-dimethylisoxazol-4-yl)methoxyimino]-5,5-dimethyl-benzo[h]quinazolin-4-amine] | 151 | 1600
CC1(C)/C(=N/OCCCOCc2ccccc2)c2cc(O[C@H]3CC[C@H](N)CC3)ccc2-c2ncnc(N)c21 [Example 26, (6Z)-8-(trans-4-aminocyclohexoxy)-6-(3-benzyloxypropoxyimino)-5,5-dimethyl-benzo[h]quinazolin-4-amine] | 42.6 | 1360
CC1(C)/C(=N/OCCN2CCCC2)c2cc(O[C@H]3CC[C@H](N)CC3)ccc2-c2ncnc(N)c21 [Example 28, (6Z)-8-(trans-4-aminocyclohexoxy)-5,5-dimethyl-6-(2-pyrrolidin-1-ylethoxyimino)benzo[h]quinazolin-4-amine] | 279 | > 2000
CC(C)CO/N=C1\c2cc(O[C@H]3CC[C@H](N)CC3)ccc2-c2ncnc(N)c2C1(C)C [Example 30, (6Z)-8-(trans-4-aminocyclohexoxy)-6-isobutoxyimino-5,5-dimethyl-benzo[h]quinazolin-4-amine] | 93.9 | 1560
COC(=O)CO/N=C1\c2cc(O[C@H]3CC[C@H](N)CC3)ccc2-c2ncnc(N)c2C1(C)C [Example 31, methyl 2-[(Z)-[4-amino-8-(trans-4-aminocyclohexoxy)-5,5-dimethyl-benzo[h]quinazolin-6-ylidene]amino]oxyacetate] | 76.2 | 1580
CC1(C)/C(=N/OCC(N)=O)c2cc(O[C@H]3CC[C@H](N)CC3)ccc2-c2ncnc(N)c21 [Example 32, 2-[(Z)-[4-amino-8-(trans-4-aminocyclohexoxy)-5,5-dimethyl-benzo[h]quinazolin-6-ylidene]amino]oxyacetamide] | 29.6 | 1490
CNC(=O)CO/N=C1\c2cc(O[C@H]3CC[C@H](N)CC3)ccc2-c2ncnc(N)c2C1(C)C [Example 33, 2-[(Z)-[4-amino-8-(trans-4-aminocyclohexoxy)-5,5-dimethyl-benzo[h]quinazolin-6-ylidene]amino]oxy-N-methyl-acetamide] | 23.3 | 1190
CC1(C)/C(=N/OCC2CNC(=O)O2)c2cc(O[C@H]3CC[C@H](N)CC3)ccc2-c2ncnc(N)c21 (stereo partly drawn) [Example 34, 5-[[(Z)-[4-amino-8-(trans-4-aminocyclohexoxy)-5,5-dimethyl-benzo[h]quinazolin-6-ylidene]amino]oxymethyl]oxazolidin-2-one] | 10.9 | 620
CN(C)CCO/N=C1\c2cc(O[C@H]3CC[C@H](N)CC3)ccc2-c2ncnc(N)c2C1(C)C [Example 35, (6Z)-8-(trans-4-aminocyclohexoxy)-6-[2-(dimethylamino)ethoxyimino]-5,5-dimethyl-benzo[h]quinazolin-4-amine] | 144 | 1480
CO/N=C1\c2cc(O[C@H]3CC[C@H](N)CC3)sc2-c2ncnc(N)c2C1(C)C [Example 36, (6Z)-8-(trans-4-aminocyclohexoxy)-6-methoxyimino-5,5-dimethyl-thieno[3,2-h]quinazolin-4-amine] | 56.4 | 1150
CC1(C)/C(=N/OC[C@H]2CNC(=O)O2)c2cc(O[C@H]3CC[C@H](N)CC3)ccc2-c2ncnc(N)c21 [Example 37, (5R)-5-[[(Z)-[4-amino-8-(trans-4-aminocyclohexoxy)-5,5-dimethyl-benzo[h]quinazolin-6-ylidene]amino]oxymethyl]oxazolidin-2-one] | 59 | > 2000
CO/N=C1\c2cc(OC)c(Cl)cc2-c2ncnc(N)c2C1(C)C [Example 41, (6Z)-9-chloro-8-methoxy-6-methoxyimino-5,5-dimethyl-benzo[h]quinazolin-4-amine] | 92.8 | > 2000
CO/N=C1\c2c(ccc(OC)c2Cl)-c2ncnc(N)c2C1(C)C [Example 43, (6Z)-7-chloro-8-methoxy-6-methoxyimino-5,5-dimethyl-benzo[h]quinazolin-4-amine] | 90.5 | > 2000
CO/N=C1\c2cc(N(C)[C@H]3CC[C@H](N)CC3)ccc2-c2ncnc(N)c2C1(C)C [Example 44, (6Z)—N8-(trans-4-aminocyclohexyl)-6-methoxyimino-N8,5,5-trimethyl-benzo[h]quinazoline-4,8-diamine] | 15.8 | > 2000
CO/N=C1/c2cc(O[C@H]3CC[C@H](N)CC3)ccc2-c2ncnc(N)c2C1(C)C [Example 45, (6E)-8-(trans-4-aminocyclohexoxy)-6-methoxyimino-5,5-dimethyl-benzo[h]quinazolin-4-amine] | 104 | 1460
CC1(C)/C(=N\O)c2cc(O[C@H]3CC[C@H](N)CC3)ccc2-c2ncnc(N)c21 [Example 46, (6E)-4-amino-8-(trans-4-aminocyclohexoxy)-5,5-dimethyl-benzo[h]quinazolin-6-one oxime] | 12.7 | 470
C=C(c1ccc2c(c1)/C(=N/OC)C(C)(C)c1c(N)ncnc1-2)[C@H]1CC[C@H](N)CC1 [Example 47, (6E)-8-[1-(trans-4-aminocyclohexyl)vinyl]-6-methoxyimino-5,5-dimethyl-benzo[h]quinazolin-4-amine] | 77.3 | 443
CO/N=C1/c2c(ccc(OC)c2Cl)-c2ncnc(N)c2C1(C)C [Example 48, (6E)-7-chloro-8-methoxy-6-methoxyimino-5,5-dimethyl-benzo[h]quinazolin-4-amine] | 4.9 | > 2000
CO/N=C1/c2c(ccc(OC)c2N)-c2ncnc(N)c2C1(C)C [Example 49, (6E)-8-methoxy-6-methoxyimino-5,5-dimethyl-benzo[h]quinazoline-4,7-diamine] | 14.4 | > 2000
COc1ccc2c(c1)/C(=N\OC[C@@H]1CN(C)C(=O)O1)C(C)(C)c1c(N)ncnc1-2 [Example 50, (5S)-5-[[(Z)-(4-amino-8-methoxy-5,5-dimethyl-benzo[h]quinazolin-6-ylidene)amino]oxymethyl]-3-methyl-oxazolidin-2-one] | < 1.5 | 761
CC1(C)/C(=N/OC[C@@H]2CNC(=O)O2)c2cc(Br)ccc2-c2ncnc(N)c21 [Example 51, (5S)-5-[[(Z)-(4-amino-8-bromo-5,5-dimethyl-benzo[h]quinazolin-6-ylidene)amino]oxymethyl]oxazolidin-2-one] | 7.26 | 511
